{"source": "patent US20030181527A1", "about": "“Novel formulations of alpha-2,4-disulfophenyl-n-tert-butylnitrone” (priority 2000, published 2003)", "key": {"[1]": {"test": "Effect of chelator resin Chelex-100 on stability of concentrated aqueous solution", "assay_type": "physicochemical", "conditions": "100 mg/ml, 5.3 mM phosphate, pH 8.0", "procedure": "A concentrated aqueous solution of α-(2,4-disulfophenyl)-N-tert-butylnitrone disodium salt (100 mg/ml) and disodium hydrogen phosphate (5.3 mM) at pH 8.0 was passed overnight through a column of the chelator resin, Chelex-100®. The resulting solution was placed in portions (8 ml) into 10 ml glass vials which were then sealed. The starting level of the aldehyde (II) was 0.20%. After two months at +40° C. and 75% relative humidity the concentration of the aldehyde (II) had increased to 2.3%. In a control experiment where the treatment with the resin was omitted, the level of the aldehyde (II) increased to 3.0%."}, "Ps. aeruginosa": {"system": "Ps. aeruginosa", "test": "Antimicrobial efficacy (European Pharmacopoeia 2000, Chapter 5.1.3)", "assay_type": "cell-based", "procedure": "(§1) The antimicrobial efficacy was tested for three different solutions:\n(§2) i) α-(2,4-disulfophenyl)-N-tert-butylnitrone disodium salt, 10 mg/ml;\n(§3) ii) α-(2,4-disulfophenyl)-N-tert-butylnitrone disodium salt, 400 mg/ml; and\n(§4) iii) a carbonate buffer control.\n(§5) The tests were performed according to European Pharmacopoeia 2000, Chapter 5.1.3, pages 259 to 260. Seven 10 ml vials were inoculated, one per test organism. During the tests, the vials were stored at controlled room temperature and protected from light. At different time intervals, samples were withdrawn and after appropriate dilutions the numbers of viable microorganisms (colony forming units per ml, CFU/ml) were determined using standard plate count procedures."}, "C. albicans": {"system": "C. albicans", "test": "Antimicrobial efficacy (European Pharmacopoeia 2000, Chapter 5.1.3)", "assay_type": "cell-based", "procedure": "as §1, §2, §3, §4, §5"}, "A. niger": {"system": "A. niger", "test": "Antimicrobial efficacy (European Pharmacopoeia 2000, Chapter 5.1.3)", "assay_type": "cell-based", "procedure": "as §1, §2, §3, §4, §5"}}}
{"smiles": "CC(C)(C)[N+]([O-])=Cc1ccc(S(=O)(=O)[O-])cc1S(=O)(=O)[O-].[Na+].[Na+]", "note": "[α-(2,4-disulfophenyl)-N-tert-butylnitrone disodium salt]", "values": [{"measurement": "Concentration of the aldehyde (II)", "setting": "[1]; Chelex-100 treated, 2 months +40° C./75% RH", "result": 2.3, "unit": "%"}, {"measurement": "Starting level of the aldehyde (II)", "setting": "[1]; Chelex-100 treated, start", "result": 0.20, "unit": "%"}, {"measurement": "Level of the aldehyde (II)", "setting": "[1]; resin treatment omitted, 2 months +40° C./75% RH", "result": 3.0, "unit": "%"}, {"measurement": "Number of CFUs per ml - Time after Inoculation", "setting": "Ps. aeruginosa; 10 mg/ml, 6 h", "result": "4.0 × 10^4 CFUs per ml"}, {"measurement": "Number of CFUs per ml - Time after Inoculation", "setting": "Ps. aeruginosa; 10 mg/ml, 24 h", "result": "4.0 × 10^2 CFUs per ml"}, {"measurement": "Number of CFUs per ml - Time after Inoculation", "setting": "Ps. aeruginosa; 10 mg/ml, 48 h", "result": "3.5 × 10^2 CFUs per ml"}, {"measurement": "Number of CFUs per ml - Time after Inoculation", "setting": "Ps. aeruginosa; 10 mg/ml, 7 days", "result": "≦10 CFUs per ml"}, {"measurement": "Number of CFUs per ml - Time after Inoculation", "setting": "Ps. aeruginosa; 10 mg/ml, 14 days", "result": "<1", "unit": "CFUs per ml"}, {"measurement": "Number of CFUs per ml - Time after Inoculation", "setting": "Ps. aeruginosa; 10 mg/ml, 21 days", "result": "<1", "unit": "CFUs per ml"}, {"measurement": "Number of CFUs per ml - Time after Inoculation", "setting": "Ps. aeruginosa; 10 mg/ml, 28 days", "result": "<1", "unit": "CFUs per ml"}, {"measurement": "Number of CFUs per ml - Time after Inoculation", "setting": "Ps. aeruginosa; 10 mg/ml, <1 min", "result": "1.5 × 10^6 CFUs per ml"}, {"measurement": "Number of CFUs per ml - Time after Inoculation", "setting": "Ps. aeruginosa; 400 mg/ml, 6 h", "result": "1.4 × 10^1 CFUs per ml"}, {"measurement": "Number of CFUs per ml - Time after Inoculation", "setting": "Ps. aeruginosa; 400 mg/ml, 24 h", "result": "<1", "unit": "CFUs per ml"}, {"measurement": "Number of CFUs per ml - Time after Inoculation", "setting": "Ps. aeruginosa; 400 mg/ml, 48 h", "result": "<1", "unit": "CFUs per ml"}, {"measurement": "Number of CFUs per ml - Time after Inoculation", "setting": "Ps. aeruginosa; 400 mg/ml, 7 days", "result": "<1", "unit": "CFUs per ml"}, {"measurement": "Number of CFUs per ml - Time after Inoculation", "setting": "Ps. aeruginosa; 400 mg/ml, 14 days", "result": "<1", "unit": "CFUs per ml"}, {"measurement": "Number of CFUs per ml - Time after Inoculation", "setting": "Ps. aeruginosa; 400 mg/ml, 21 days", "result": "<1", "unit": "CFUs per ml"}, {"measurement": "Number of CFUs per ml - Time after Inoculation", "setting": "Ps. aeruginosa; 400 mg/ml, 28 days", "result": "<1", "unit": "CFUs per ml"}, {"measurement": "Number of CFUs per ml - Time after Inoculation", "setting": "Ps. aeruginosa; 400 mg/ml, <1 min", "result": "1.1 × 10^4 CFUs per ml"}, {"measurement": "Reduction in colony forming units per ml (CFU/ml)", "setting": "Ps. aeruginosa; 400 mg/ml, within 6 hours", "result": "≥ 10^3 fold"}, {"measurement": "Number of CFUs per ml - Time after Inoculation", "setting": "C. albicans; 10 mg/ml, 6 h", "result": "7.0 × 10^5 CFUs per ml"}, {"measurement": "Number of CFUs per ml - Time after Inoculation", "setting": "C. albicans; 10 mg/ml, 24 h", "result": "6.5 × 10^5 CFUs per ml"}, {"measurement": "Number of CFUs per ml - Time after Inoculation", "setting": "C. albicans; 10 mg/ml, 48 h", "result": "6.5 × 10^5 CFUs per ml"}, {"measurement": "Number of CFUs per ml - Time after Inoculation", "setting": "C. albicans; 10 mg/ml, 7 days", "result": "<10", "unit": "CFUs per ml"}, {"measurement": "Number of CFUs per ml - Time after Inoculation", "setting": "C. albicans; 10 mg/ml, 14 days", "result": "<1", "unit": "CFUs per ml"}, {"measurement": "Number of CFUs per ml - Time after Inoculation", "setting": "C. albicans; 10 mg/ml, 21 days", "result": "<1", "unit": "CFUs per ml"}, {"measurement": "Number of CFUs per ml - Time after Inoculation", "setting": "C. albicans; 10 mg/ml, 28 days", "result": "<1", "unit": "CFUs per ml"}, {"measurement": "Number of CFUs per ml - Time after Inoculation", "setting": "C. albicans; 10 mg/ml, <1 min", "result": "6.5 × 10^5 CFUs per ml"}, {"measurement": "Number of CFUs per ml - Time after Inoculation", "setting": "C. albicans; 400 mg/ml, 6 h", "result": "3.1 × 10^4 CFUs per ml"}, {"measurement": "Number of CFUs per ml - Time after Inoculation", "setting": "C. albicans; 400 mg/ml, 24 h", "result": "6.1 × 10^3 CFUs per ml"}, {"measurement": "Number of CFUs per ml - Time after Inoculation", "setting": "C. albicans; 400 mg/ml, 48 h", "result": "<1", "unit": "CFUs per ml"}, {"measurement": "Number of CFUs per ml - Time after Inoculation", "setting": "C. albicans; 400 mg/ml, 7 days", "result": "<1", "unit": "CFUs per ml"}, {"measurement": "Number of CFUs per ml - Time after Inoculation", "setting": "C. albicans; 400 mg/ml, 14 days", "result": "<1", "unit": "CFUs per ml"}, {"measurement": "Number of CFUs per ml - Time after Inoculation", "setting": "C. albicans; 400 mg/ml, 21 days", "result": "<1", "unit": "CFUs per ml"}, {"measurement": "Number of CFUs per ml - Time after Inoculation", "setting": "C. albicans; 400 mg/ml, 28 days", "result": "<1", "unit": "CFUs per ml"}, {"measurement": "Number of CFUs per ml - Time after Inoculation", "setting": "C. albicans; 400 mg/ml, <1 min", "result": "1.6 × 10^5 CFUs per ml"}, {"measurement": "Number of CFUs per ml - Time after Inoculation", "setting": "A. niger; 10 mg/ml, 6 h", "result": "4.5 × 10^4 CFUs per ml"}, {"measurement": "Number of CFUs per ml - Time after Inoculation", "setting": "A. niger; 10 mg/ml, 24 h", "result": "5.0 × 10^4 CFUs per ml"}, {"measurement": "Number of CFUs per ml - Time after Inoculation", "setting": "A. niger; 10 mg/ml, 48 h", "result": "5.5 × 10^4 CFUs per ml"}, {"measurement": "Number of CFUs per ml - Time after Inoculation", "setting": "A. niger; 10 mg/ml, 7 days", "result": "3.0 × 10^4 CFUs per ml"}, {"measurement": "Number of CFUs per ml - Time after Inoculation", "setting": "A. niger; 10 mg/ml, 14 days", "result": "1.0 × 10^3 CFUs per ml"}, {"measurement": "Number of CFUs per ml - Time after Inoculation", "setting": "A. niger; 10 mg/ml, 21 days", "result": "1.0 × 10^2 CFUs per ml"}, {"measurement": "Number of CFUs per ml - Time after Inoculation", "setting": "A. niger; 10 mg/ml, 28 days", "result": "≦10 CFUs per ml"}, {"measurement": "Number of CFUs per ml - Time after Inoculation", "setting": "A. niger; 10 mg/ml, <1 min", "result": "5.0 × 10^4 CFUs per ml"}, {"measurement": "Number of CFUs per ml - Time after Inoculation", "setting": "A. niger; 400 mg/ml, 6 h", "result": "5.9 × 10^4 CFUs per ml"}, {"measurement": "Number of CFUs per ml - Time after Inoculation", "setting": "A. niger; 400 mg/ml, 24 h", "result": "3.4 × 10^4 CFUs per ml"}, {"measurement": "Number of CFUs per ml - Time after Inoculation", "setting": "A. niger; 400 mg/ml, 48 h", "result": "1.7 × 10^4 CFUs per ml"}, {"measurement": "Number of CFUs per ml - Time after Inoculation", "setting": "A. niger; 400 mg/ml, 7 days", "result": "1.9 × 10^2 CFUs per ml"}, {"measurement": "Number of CFUs per ml - Time after Inoculation", "setting": "A. niger; 400 mg/ml, 14 days", "result": "<1", "unit": "CFUs per ml"}, {"measurement": "Number of CFUs per ml - Time after Inoculation", "setting": "A. niger; 400 mg/ml, 21 days", "result": "<1", "unit": "CFUs per ml"}]}
